Assay results taken from EP0144441A1, “BLOOD PRESSURE-CONTROLLING AGENT” (HAYASHIBARA BIOCHEMICAL LABORATORIES, INC., priority 1983, dated 1984).
Read-outs that look alike come from different tables or passages of the source.

Assays:
[1] = Acute toxicity; conditions: rat, in vivo, male Wistar rats, suspended in 5 % gum arabic, observed 7 days, method of Van der Warden
Method: Eight male Wistar rats (weighing about 150 g) per group were used. Platonin suspended in 5 % gum arabic was administered intraperitonealy, or orally using a gastric tube. […] The LD50 value was calculated by the method of Van der Warden.

[2] = system: spontaneously hypertensive rats; assay: Effect on spontaneously hypertensive rats (blood pressure, heart rate, body weight); type: in vivo; conditions: for antihypertensive effect: separate experiment (not illustrated)
Method: Male spontaneously hypertensive rats (hereinafter referred to as SHR, weighing about 190 g) eight weeks old were used in groups of 5 animals. Platonin was orally adminstered at a dose of 1 µg/kg three times a week for 13 weeks. A physiological saline alone was adminstered to a control group in the same manner as above. During the administration period, blood pressure, heart rate and body weight were measured at timed intervals.
Blood pressure, systolic, was bloodlessly measured in the caudal artery using a rat blood pressure manometer (made by Narco Biosystems Co.), and heart rate using a polygraph (made by Nippon Kohden Kabushiki Kaisha).

[3] = system: normal rats (Wistar-Kyoto); assay: Effect on blood pressure in normal rats (also heart rate, body weight); type: in vivo
Method: Male Wistar-Kyoto rats eight weeks old (weighing about 190 g) were used in groups of 5 animals. Platonin was orally administered at a dose of 1 µg/kg three times a week for 8 weeks. A physiological saline alone was administered to a control group in the same manner as above. During the administration period, blood pressure, heart rate and body weight were measured at timed intervals. Blood pressure, systolic, was bloodlessly measured in the caudal artery using a rat blood pressure manometer (made by Narco Biosystems Co.), and heart rate using a polygraph (made by Nippon Kohden Kabushiki Kaisha).

[4] = normal rats, in comparison with the control group

SMILES: CCCCCCCN1C(C)=CS\C1=C/C=C(/C=C/c1scc(C)[n+]1CCCCCCC)c1scc(C)[n+]1CCCCCCC
- LD50 at 168 h ([1]; ip, intraperitoneal, read-out: intraperitoneal LD50 value): 54 mg/kg
- LD50 at 168 h ([1]; oral by gastric tube, read-out: oral LD50 value): 1500 mg/kg
- acute hypotensive effect ([2]; SHR, also at a higher dose, time for the antihypertensive effect to be revealed was the same): any acute hypotensive effect was not found
- Body weight change ([2]; SHR, oral, 1 µg/kg three times a week, Fig. 2): no influence on body weight gain
- Effect on heart rate ([2]; SHR, oral, 1 µg/kg three times a week, any time point during administration, compared with control group): any significant change in heart rate was not observed
- Body weight change ([2]; SHR, oral, 1 to 100 ug/kg three times a week (not illustrated)): no effect on body weight
- antihypertensive effect ([2]; SHR, after about 4 weeks of administration): significant decrease in blood pressure
- antihypertensive effect ([2]; SHR, till the 3rd week of administration): no effect at all
- Effect on blood pressure ([2]; male SHR, oral, 1 ug/kg three times a week for 13 weeks, systolic, caudal artery, each measurement time point after 5 weeks, Fig. 1): remarkable blood pressure fall
- Effect on blood pressure in normal rats ([3]; male Wistar-Kyoto rats, oral, 1 µg/kg three times a week for 8 weeks, Fig. 3): no influence on blood pressure
- Effect on blood pressure in normal rats ([3]; normal rats, dose range of 1 to 100 µg/kg): no change in blood pressure
- body weight [3, 4]: no significant changes
- heart rate [3, 4]: no significant changes
